In patent publication US12091426B2, “Bifunctional degraders of hematopoietic progenitor kinase and therapeutic uses thereof” (Nurix Therapeutics, Inc., priority 2021, dated 2024):

Biological target: T1, HPK1 (Homo sapiens, UniProt Q92918)
T1 construct: A HiBiT tag was introduced by CRISPR on the N terminus of HPK1 in Jurkat cells; host or cells: Jurkat cells (ATCC TIB-152), monoclonal line with CRISPR knock-in of HiBiT at the endogenous HPK1 locus
Assay: HPK1 Cellular HiBit Degradation Assay
Format: cell-based
Conditions: HiBiT HPK1 Jurkat cells, 24 hrs; for DC50: concentration at which 50% of HPK1 was remaining, read-out: DC50 Category; for Dmax: Jurkat, maximum degradation vs DMSO vehicle control, read-out: Dmax Category
Method in brief: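 Jurkat cells with CRISPR knock-in N-terminal HiBiT-HPK1 were treated with CTMs (11-point, 3.16-fold, 10 uM to 0.1 nM final) for 24 hrs at 37° C. HiBiT lytic luminescence, with parental Jurkat as background and DMSO as 100%, gave % HPK1 remaining; four-parameter fit yielded DC50 and Dmax (100 minus lowest % remaining).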

T1 sequence (Q92918 whole entry): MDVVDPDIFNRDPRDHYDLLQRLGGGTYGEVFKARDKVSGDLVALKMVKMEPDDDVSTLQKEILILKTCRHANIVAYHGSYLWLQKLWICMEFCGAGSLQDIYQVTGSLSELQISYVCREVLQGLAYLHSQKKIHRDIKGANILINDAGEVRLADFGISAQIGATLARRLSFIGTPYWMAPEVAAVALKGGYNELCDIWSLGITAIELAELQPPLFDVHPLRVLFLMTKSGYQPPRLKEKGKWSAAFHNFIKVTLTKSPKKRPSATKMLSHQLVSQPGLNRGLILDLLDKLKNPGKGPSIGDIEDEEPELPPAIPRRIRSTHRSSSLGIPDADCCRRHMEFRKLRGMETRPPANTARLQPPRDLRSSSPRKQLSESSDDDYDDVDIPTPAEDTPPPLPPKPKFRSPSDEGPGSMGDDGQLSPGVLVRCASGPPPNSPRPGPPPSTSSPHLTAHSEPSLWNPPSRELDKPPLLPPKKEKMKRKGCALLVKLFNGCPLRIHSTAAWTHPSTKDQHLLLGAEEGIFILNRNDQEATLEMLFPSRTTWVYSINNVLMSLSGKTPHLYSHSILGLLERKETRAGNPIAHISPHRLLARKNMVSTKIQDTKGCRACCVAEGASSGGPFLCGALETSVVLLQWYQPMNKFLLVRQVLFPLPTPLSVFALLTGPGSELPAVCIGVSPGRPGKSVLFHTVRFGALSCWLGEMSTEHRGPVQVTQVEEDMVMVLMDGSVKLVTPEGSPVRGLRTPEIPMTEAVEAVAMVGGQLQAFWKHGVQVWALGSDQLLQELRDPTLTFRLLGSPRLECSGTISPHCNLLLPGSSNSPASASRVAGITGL

SMILES | DC50 [nM] | Dmax [%]
CC(C)n1cnc2cc(-c3ccc4c(c3)N([C@H]3C[C@@H](N5CCCCC5)C3)C(=O)C43CCN(C(=O)C45CN(C(=O)C6CCN(c7ccc(C8CCC(=O)NC8=O)cn7)CC6)CC(F)(C4)C5)CC3)nc(NC3CC3)c21 (mixture of isomers) [Example 279, (3RS)-3-(6-{4-[1-({6-[4-(cyclopropylamino)-3-(propan-2-yl)-3H-imidazo[4,5-c]pyridin-6-yl]-2-oxo-1-[(1S,3S)-3-(piperidin-1-yl)cyclobutyl]-1,2-dihydrospiro[indole-3,4′-piperidin]-1′-yl}carbonyl)-5-fluoro-3-azabicyclo[3.1.1]heptane-3-carbonyl]piperidin-1-yl}pyridin-3-yl)piperidine-2,6-dione] | < 100 | 70 to 85
CC(C)n1cnc2cc(-c3ccc4c(c3)N([C@H]3C[C@@H](N5CCCCC5)C3)C(=O)C43CCN(C(=O)C4(F)CCCN(C(=O)C5CCN(c6ccc(C7CCC(=O)NC7=O)cn6)CC5)C4)CC3)nc(NC3CC3)c21 (mixture of isomers) [Example 280, (3RS)-3-(6-{4-[3-({6-[4-(cyclopropylamino)-3-(propan-2-yl)-3H-imidazo[4,5-c]pyridin-6-yl]-2-oxo-1-[(1S,3S)-3-(piperidin-1-yl)cyclobutyl]-1,2-dihydrospiro[indole-3,4′-piperidin]-1′-yl}carbonyl)-3-fluoropiperidine-1-carbonyl]piperidin-1-yl}pyridin-3-yl)piperidine-2,6-dione] | < 100 | 70 to 85
CC(C)n1cnc2cc(-c3ccc4c(c3)N([C@H]3C[C@@H](N5CCCCC5)C3)C(=O)C43CCN(C(=O)C45CN(C(=O)C6CCN(c7ccc(C8CCC(=O)NC8=O)cn7)CC6)CC4C5(F)F)CC3)nc(NC3CC3)c21 (mixture of isomers) [Example 281, (3RS)-3-(6-{4-[1-({6-[4-(cyclopropylamino)-3-(propan-2-yl)-3H-imidazo[4,5-c]pyridin-6-yl]-2-oxo-1-[(1S,3S)-3-(piperidin-1-yl)cyclobutyl]-1,2-dihydrospiro[indole-3,4′-piperidin]-1′-yl}carbonyl)-6,6-difluoro-3-azabicyclo[3.1.0]hexane-3-carbonyl]piperidin-1-yl}pyridin-3-yl)piperidine-2,6-dione] | < 100 | 50 to 70
CC(C)n1cnc2cc(-c3ccc4c(c3)N([C@H]3C[C@@H](N5CCCCC5)C3)C(=O)C43CCN(C(=O)C4C5CC4CN(C(=O)C4CCN(c6ccc(C7CCC(=O)NC7=O)cn6)CC4)C5)CC3)nc(NC3CC3)c21 (mixture of isomers) [Example 282, (3RS)-3-(6-{4-[6-({6-[4-(cyclopropylamino)-3-(propan-2-yl)-3H-imidazo[4,5-c]pyridin-6-yl]-2-oxo-1-[(1S,3S)-3-(piperidin-1-yl)cyclobutyl]-1,2-dihydrospiro[indole-3,4′-piperidin]-1′-yl}carbonyl)-3-azabicyclo[3.1.1]heptane-3-carbonyl]piperidin-1-yl}pyridin-3-yl)piperidine-2,6-dione] | < 100 | 70 to 85
CC(C)n1cnc2cc(-c3ccc4c(c3)N([C@H]3C[C@@H](N5CCCCC5)C3)C(=O)C43CCN(C(=O)C4CC5CCC4N(C(=O)C4CCN(c6ccc(C7CCC(=O)NC7=O)cn6)CC4)C5)CC3)nc(NC3CC3)c21 (mixture of isomers) [Example 283, (3RS)-3-(6-{4-[6-({6-[4-(cyclopropylamino)-3-(propan-2-yl)-3H-imidazo[4,5-c]pyridin-6-yl]-2-oxo-1-[(1S,3S)-3-(piperidin-1-yl)cyclobutyl]-1,2-dihydrospiro[indole-3,4′-piperidin]-1′-yl}carbonyl)-2-azabicyclo[2.2.2]Octane-2-carbonyl]piperidin-1-yl}pyridin-3-yl)piperidine-2,6-dione] | 100 to 500 | 50 to 70
CC(C)n1cnc2cc(-c3ccc4c(c3)N([C@H]3C[C@@H](N5CCCCC5)C3)C(=O)C43CCN(C(=O)C4C5CCC4CN(C(=O)C4CCN(c6ccc(C7CCC(=O)NC7=O)cn6)CC4)C5)CC3)nc(NC3CC3)c21 (mixture of isomers) [Example 284, (3RS)-3-(6-{4-[8-({6-[4-(cyclopropylamino)-3-(propan-2-yl)-3H-imidazo[4,5-c]pyridin-6-yl]-2-oxo-1-[(1S,3S)-3-(piperidin-1-yl)cyclobutyl]-1,2-dihydrospiro[indole-3,4′-piperidin]-1′-yl}carbonyl)-3-azabicyclo[3.2.1]Octane-3-carbonyl]piperidin-1-yl}pyridin-3-yl)piperidine-2,6-dione] | < 100 | 70 to 85
CC(C)n1cnc2cc(-c3ccc4c(c3)N([C@H]3C[C@@H](N5CCCCC5)C3)C(=O)C43CCN(C(=O)C4CN(C(=O)C5CCN(c6ccc(C7CCC(=O)NC7=O)cn6)CC5)CCC4(F)F)CC3)nc(NC3CC3)c21 (mixture of isomers) [Example 285, (3RS)-3-(6-{4-[3-({6-[4-(cyclopropylamino)-3-(propan-2-yl)-3H-imidazo[4,5-c]pyridin-6-yl]-2-oxo-1-[(1S,3S)-3-(piperidin-1-yl)cyclobutyl]-1,2-dihydrospiro[indole-3,4′-piperidin]-1′-yl}carbonyl)-4,4-Difluoropiperidine-1-carbonyl]piperidin-1-yl}pyridin-3-yl)piperidine-2,6-dione] | 100 to 500 | 50 to 70
CC(C)n1cnc2cc(-c3ccc4c(c3)N([C@H]3C[C@@H](N5CCCCC5)C3)C(=O)C43CCN(C(=O)[C@@H]4C[C@H]5CC[C@@H](C4)N5C(=O)C4CCN(c5ccc(C6CCC(=O)NC6=O)cn5)CC4)CC3)nc(NC3CC3)c21 (mixture of isomers) [Example 286, (3SR)-3-(6-{4-[(1S,3R,5RS)-3-({6-[4-(cyclopropylamino)-3-(propan-2-yl)-3H-imidazo[4,5-c]pyridin-6-yl]-2-oxo-1-[(1S,3S)-3-(piperidin-1-yl)cyclobutyl]-1,2-dihydrospiro[indole-3,4′-piperidin]-1′-yl}carbonyl)-8-azabicyclo[3.2.1]octane-8-carbonyl]piperidin-1-yl}pyridin-3-yl)piperidine-2,6-dione] | < 100 | 70 to 85
CC(C)n1cnc2cc(-c3ccc4c(c3)N([C@H]3C[C@@H](N5CCCCC5)C3)C(=O)C43CCN(C(=O)C4CN(C(=O)C5CCN(c6ccc(C7CCC(=O)NC7=O)cn6)CC5)CCC45CCC5)CC3)nc(NC3CC3)c21 (mixture of isomers) [Example 287, (3RS)-3-(6-{4-[5-({6-[4-(cyclopropylamino)-3-(propan-2-yl)-3H-imidazo[4,5-c]pyridin-6-yl]-2-oxo-1-[(1S,3S)-3-(piperidin-1-yl)cyclobutyl]-1,2-dihydrospiro[indole-3,4′-piperidin]-1′-yl}carbonyl)-7-azaspiro[3.5]nonane-7-carbonyl]piperidin-1-yl}pyridin-3-yl)piperidine-2,6-dione] | < 100 | 70 to 85
CC(C)n1cnc2cc(-c3ccc4c(c3)N([C@H]3C[C@@H](N5CCCCC5)C3)C(=O)C43CCN(C(=O)C4C5COCC4CN(C(=O)C4CCN(c6ccc(C7CCC(=O)NC7=O)cn6)CC4)C5)CC3)nc(NC3CC3)c21 (mixture of isomers) [Example 288, (3RS)-3-(6-{4-[9-({6-[4-(cyclopropylamino)-3-(propan-2-yl)-3H-imidazo[4,5-c]pyridin-6-yl]-2-oxo-1-[(1S,3S)-3-(piperidin-1-yl)cyclobutyl]-1,2-dihydrospiro[indole-3,4′-piperidin]-1′-yl}carbonyl)-3-oxa-7-azabicyclo[3.3.1]nonane-7-carbonyl]piperidin-1-yl}pyridin-3-yl)piperidine-2,6-dione] | < 100 | > 85
CC(C)n1cnc2cc(-c3ccc4c(c3)N([C@H]3C[C@@H](N5CCCCC5)C3)C(=O)C43CCN(C(=O)C4CC5CCC(C4)N5C(=O)C4CCN(c5ccc(C6CCC(=O)NC6=O)cc5)CC4)CC3)nc(NC3CC3)c21 (mixture of isomers) [Example 289, (3RS)-3-(4-{4-[3-({6-[4-(cyclopropylamino)-3-(propan-2-yl)-3H-imidazo[4,5-c]pyridin-6-yl]-2-oxo-1-[(1S,3S)-3-(piperidin-1-yl)cyclobutyl]-1,2-dihydrospiro[indole-3,4′-piperidin]-1′-yl}carbonyl)-8-azabicyclo[3.2.1]Octane-8-carbonyl]piperidin-1-yl}phenyl)piperidine-2,6-dione] | < 100 | 70 to 85
CC(C)n1cnc2cc(-c3ccc4c(c3)N([C@H]3C[C@@H](N5CCCCC5)C3)C(=O)C43CCN(C(=O)C4CCC5(CCC5)N(C(=O)C5CCN(c6ccc(C7CCC(=O)NC7=O)cn6)CC5)C4)CC3)nc(NC3CC3)c21 (mixture of isomers) [Example 290, (3RS)-3-(6-{4-[7-({6-[4-(cyclopropylamino)-3-(propan-2-yl)-3H-imidazo[4,5-c]pyridin-6-yl]-2-oxo-1-[(1S,3S)-3-(piperidin-1-yl)cyclobutyl]-1,2-dihydrospiro[indole-3,4′-piperidin]-1′-yl}carbonyl)-5-azaspiro[3.5]nonane-5-carbonyl]piperidin-1-yl}pyridin-3-yl)piperidine-2,6-dione] | 100 to 500 | 70 to 85
CC(C)n1cnc2cc(-c3ccc4c(c3)N([C@H]3C[C@@H](N5CCCCC5)C3)C(=O)C43CCN(C(=O)[C@H]4CC[C@H](CNC(=O)C5CCN(c6ccc(C7CCC(=O)NC7=O)cn6)CC5)CC4)CC3)nc(NC3CC3)c21 (mixture of isomers) [Example 291, 1-{5-[(3RS)-2,6-dioxopiperidin-3-yl]pyridin-2-yl}-N-{[(1R,4R)-4-({6-[4-(cyclopropylamino)-3-(propan-2-yl)-3H-imidazo[4,5-c]pyridin-6-yl]-2-oxo-1-[(1S,3S)-3-(piperidin-1-yl)cyclobutyl]-1,2-dihydrospiro[indole-3,4′-piperidin]-1′-yl}carbonyl)cyclohexyl]methyl}piperidine-4-carboxamide] | 100 to 500 | 70 to 85
